Test results as given in patent US20240076347A1, “METHODS FOR PREVENTING FUNGAL INFECTIONS” (Cidara Therapeutics, Inc., priority 2016, published 2024).
Read-outs that look alike come from different tables or passages of the source. Numbered stars: 1 amine (or outer) side, 2 acyl side, 3 side chain; on linkers, the order of the positions; unused ones are H or OH. Bridge positions count the residues as written; N and C are the ends. Square brackets hold non-standard residues; d marks the D form. Peptide text beside a SMILES is read from it. * marks the point of attachment. ξ: configuration not given here. Orn(4R-OH,5R-OCH2CH2NMe3+) = C[N+](C)(C)CCO[C@@H](N[*:3])[C@H](O)C[C@H](N[*:1])C(=O)[*:2]; pTerphenylCO(4''-OnC5H11) = CCCCCOc1ccc(-c2ccc(-c3ccc(C(=O)*)cc3)cc2)cc1; hTyr(3S-OH,4S-OH) = N[C@H](C(=O)O)[C@H](O)[C@@H](O)c1ccc(O)cc1; X1 = C[C@H]1CN([*:1])C(C(=O)[*:2])C1O; Hyp = O=C(O)[C@@H]1C[C@@H](O)CN1; ξT = CC(O)C(N)C(=O)O

Columns and labels:
[1] = format: in vivo, Wistar rats
Protocol: Endpoints. The rats were monitored at a frequency appropriate for their clinical condition. Rat weights were recorded at least once daily to ensure animals remained within ethical limits.
Reduction in weight and general loss of condition due to estradiol treatment are also typical in this rat model. Colonization with C. albicans was determined by quantitative culture of daily vaginal lavage samples. Rats were euthanized 9 days post infection and C. albicans determined by quantitative culture of vaginal tissue (including uterine horns).

[2] = test system: C. albicans SC-5314 biofilms; assay: Adhesion phase biofilms (prevention) on silicone elastomer discs; format: cell-based, Candida albicans
Protocol: Biofilms were formed on silicone elastomer (SE) discs using a catheter-associated-biofilm model (Chandra et al., Nature Protocols 3:1909, 2008; Chandra et al., J. […] Chandra et al., J. Dental Research 80: 903, 2001). For evaluation of activity against adhesion phase biofilms (prevention), Candida cells were adhered to catheter discs for 90 min. […] Discs incubated with fluconazole or media alone were used as controls in all experiments. […] Chandra et al., J. […] Chandra et al., J. Dental Research 80: 903, 2001). Following incubation with drugs, discs were transferred to fresh plates containing phosphate buffered saline with XTT and menadione, incubated for 3 h at 37° C. and optical density was read at 492 nm. Separate batches of biofilms were stained with fluorescent dyes (FUN1™, CONA) and observed under Confocal Scanning Laser Microscope (CSLM) to evaluate biofilm architecture and thickness (Chandra et al., Nature Protocols 3:1909, 2008; Chandra et al., J. […] Statistical analyses for all data were performed using GraphPad Prism 6 software. Drug treated groups were compared to control untreated groups using unpaired t-tests.

[3] = Single-dose plasma pharmacokinetics in mice, IP; format: in vivo; conditions: IP doses of 1, 4, 16 and 64 mg/kg; for half-life: read-out: elimination half-life, range
Protocol: Pharmacokinetics. […] Plasma from groups of three mice per time point (1, 3, 6, 12, 24, 48, and 72-h) was collected. The plasma drug concentrations were determined by liquid chromatography-tandem mass spectrometry. A noncompartmental model was used in the pharmacokinetic analysis. Elimination half-life was calculated by nonlinear least-squares technique. The area under the concentration-time curve (AUC) was calculated by the trapezoidal rule. Pharmacokinetic exposures for doses not directly measured in the PK study were estimated by linear extrapolation for higher and lower dose levels and by interpolation for dose levels within the dose range studied given the linear PK results. Protein binding was 99.2%.

[4] = Monkey SC tolerability study; format: in vivo, cynomolgus monkeys
Protocol: Therefore, only local tolerability (and PK) of CD101 by SC administration required evaluation. […] Plasma concentrations were then quantified by liquid chromatography with tandem mass spectrometric detection (LC-MS/MS). Bioavailability from SC dosing was calculated by comparing the calculated area under the concentration-time profile (AUC) from SC against the AUC from IV administration of the same dose.
Therefore, a separate study was designed to evaluate the tolerability of a SC dose of CD101 as a highly concentrated solution (100 mg/mL; 30 mg/kg) in two cynomolgus monkeys. […] The drug reaches a maximum concentration within a few hours then remains nearly constant over the course of 10 days.

Candida auris = assay: Murine model of disseminated candidiasis (immunosuppressed CD-1 mice), treatment; format: in vivo; conditions: 20 mg/kg IP
Protocol: Female 6-8 week old CD-1 mice were immunosuppressed with cyclophosphamide (200 mg/kg) 3 days prior to infection and 150 mg/kg 1 day post-infection. On the day of infection, mice were inoculated with 3×10^7 C. auris blastospores via the lateral tail vein. Mice were randomized into 5 groups (n=5 for colony forming units (CFU) and n=10 for survival): CD101 20 mg/kg administered by intraperitoneal (IP) injection, fluconazole 20 mg/kg administered per os (PO), amphotericin B 0.3 mg/kg IP, and a vehicle control. Treatments were administered 2 hours post-infection (Day 1) and again on Day 4 of the study for a total of 2 doses. Mice were monitored daily and a survival curve was generated. CFU groups were sacrificed on Day 8 of the study. One kidney was removed from each mouse, homogenized, plated on potato dextrose agar (PDA), and incubated at 35° C. for 2 days to determine CFU. The remaining survival mice were monitored until the end of the study (Day 14).

[5] = test system: A. fumigatus (ATCC 13073); assay: Disseminated infection of neutropenic ICR mice, prophylaxis, survival; format: in vivo, Aspergillus fumigatus
Protocol: Inoculum Preparation. A. fumigatus (ATCC 13073) growth was taken from 96 hr potato dextrose agar (PDA) and re-suspended in 0.1% Tween 20. The culture was resuspended in 1 mL cold PBS (>1.0×10^8 CFU/mL, OD620 2.3-2.8). The culture was then diluted in PBS to final cellular densities of 2.0×10^5 CFU/mL. The actual colony counts were determined by plating dilutions on PDA plates to confirm inoculation concentration. The actual inoculum count was 1.85×10^5 CFU/mL.
A. fumigatus (ATCC 13073) disseminated infection (IV). Groups of 6 female ICR mice weighing 22±2 g were used. Animals were immunosuppressed by three intraperitoneal (IP) injections of cyclophosphamide (the first at 6 mg/mouse 3 days before inoculation, the second and third at 2 mg/mouse on Day 1 then Day 4 after inoculation). On Day 0, animals were inoculated (0.1 mL/mouse) by intravenous (IV) injection into the tail vein with A. fumigatus (ATCC 13073), 1.85×10^4 CFU per mouse. CD101 at 5, 10 and 20 mg/kg as prophylaxis was administered subcutaneously (SC) once starting 5, 3 or 1 day before inoculation. […]
A 50 percent or more (≥50%) increase in the survival rate compared to the vehicle control group indicates significant anti-infective activity. The health observations including body weight, hunched posture, ruffled fur, immobility and hypothermia were recorded daily for 14 days. Animals found moribund were to be humanely sacrificed with CO2 asphyxiation in the study.

A. fumigatus ATCC 13073 = assay: Disseminated aspergillosis in neutropenic ICR mice (Example 14), treatment and prophylaxis; format: in vivo, Aspergillus fumigatus
Protocol: Disseminated aspergillosis: ICR mice (6/grp) were made neutropenic by cyclophosphamide on Days −3 (270 mg/kg), +1 and +4 (90 mg/kg). IV infection with A. fumigatus ATCC 13073 (10^4 CFU/mouse) on Day 0. […] Survival monitored for a 10 days. Same model was used for prophylaxis except CD101 was dosed on Days −1, −3 or −5.

[6] = 5, 10 and 20 mg/kg SC on Day −5, −3 and −1

In the case of `CCCCCOc1ccc(-c2ccc(-c3ccc(C(=O)N[C@H]4C[C@@H](O)[C@@H](OCC[N+](C)(C)C)NC(=O)C5C(O)[C@@H](C)CN5C(=O)[C@H]([C@@H](C)O)NC(=O)[C@H]([C@H](O)[C@@H](O)c5ccc(O)cc5)NC(=O)[C@@H]5C[C@@H](O)CN5C(=O)C(C(C)O)NC4=O)cc3)cc2)cc1` (stereo partly drawn) [CD101] ({pTerphenylCO(4''-OnC5H11)}-[Orn(4R-OH,5R-OCH2CH2NMe3+)][ξT][Hyp][hTyr(3S-OH,4S-OH)]T[X1]; lactam 1-C), the tolerability ([1]; all treatment doses and durations) is reported as “well tolerated with no adverse events observed”, the weight loss ([1]; ovariectomised, estradiol-treated rats) is reported as “did not seem to be exacerbated” and the “biofilm architecture (CSLM)” value ([2]; 0.25 and 1 μg/ml) is reported as “only remnants of adhered cells, and no biofilm maturation”. For the same compound, the “biofilm metabolic activity (XTT)” value ([2]; 0.25 and 1 μg/ml, 24 h, vs untreated, P<0.05) was “significantly less biofilms”, the thickness of biofilms ([2]; CD101 exposed, untreated control 36 μm, P<0.05) was 4 μm and the AUC ([3]; ICR Swiss/CD1, mouse, read-out: AUC0-, range) was 93.2 to 40500 µg·h/mL. It also gave a Cmax ([3]; ICR Swiss/CD1, mouse, read-out: Peak (Cmax) levels, range) of 2600 to 76700 ng/mL, a half-life ([3]; ICR Swiss/CD1, mouse) of 28 to 41 h and a half-life ([3]; mouse) of 29 to 41 h. For the same compound, the “local (injection site) tolerability” value ([4]; single 30 mg/kg SC (100 mg/mL)) was “no sign of irritation or local (injection site) adverse toxicity”, the “bodyweight and food consumption” value ([4]; single 30 mg/kg SC, 10 days follow-up) was “no effect on bodyweight or food consumption” and the “average reduction in kidney CFU” value (Candida auris; 2 doses (Day 1, Day 4), Day 8, compared to fluconazole, amphotericin B and vehicle groups) was 3 log. For the same compound, the “percent survival at the end of the study” value (Candida auris; 2 doses, Day 14) was 80%, the 14-day survival ([5]; 5 mg/kg SC 1 hr after infection) was “significant increase in the 14-day survival” and the “increase in the 14-day survival compared to the vehicle group” value [5, 6] was at least 50%. The “symptoms of infection (body weight, hunched posture, ruffled fur, immobility, hypothermia)” value [5, 6] was “improved”, the survival (A. fumigatus ATCC 13073; prophylaxis) was 100% and the survival (A. fumigatus ATCC 13073; prophylaxis, single 5 mg/kg given up to 5 days prior to infection) was “improved survival depending on day given”. For the same compound, the survival (A. fumigatus ATCC 13073; treatment, IV/IP at 0.2, 1 or 5 mg/kg BID×5 d, vs vehicle) was “significant increase in survival compared to vehicle” and the survival (A. fumigatus ATCC 13073; treatment, single 2 mg/kg vs 0.2 mg/kg BID×5 d) was “Survival was comparable”.
